The text below walks through data of ChEMBL document CHEMBL1250483, “Three-dimensional quantitative structure-activity relationship CoMSIA/CoMFA and LeapFrog studies on novel series of bicyclo [4.1.0] heptanes derivatives as melanin-concentrating hormone receptor R1 antagonists” (Eur J Med Chem, 2010).

For the assay, the target named is Melanin-concentrating hormone receptor 1 (Homo sapiens, UniProt Q99705). Nature of the assay: Antagonist activity at MCH1 receptor. The format is functional.
Sequence of Melanin-concentrating hormone receptor 1 (Q99705 whole entry): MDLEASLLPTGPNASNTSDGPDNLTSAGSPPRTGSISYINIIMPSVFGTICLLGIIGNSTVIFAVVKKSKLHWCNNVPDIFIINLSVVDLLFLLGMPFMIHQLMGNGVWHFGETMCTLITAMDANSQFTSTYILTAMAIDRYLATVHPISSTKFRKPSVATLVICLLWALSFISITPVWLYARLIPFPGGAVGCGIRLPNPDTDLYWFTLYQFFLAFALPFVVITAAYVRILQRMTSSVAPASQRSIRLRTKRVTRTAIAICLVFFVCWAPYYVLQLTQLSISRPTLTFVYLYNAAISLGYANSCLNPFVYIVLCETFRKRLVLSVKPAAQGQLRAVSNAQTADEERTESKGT
In turn, `N#Cc1cccc([C@]23CCC(N(CCN4CC[C@@H](O)C4)C(=O)Nc4ccc(F)cc4)CC2C3)c1` (stereo partly drawn) had an inhibitory constant (Ki) of 54 nM. `N#Cc1cccc([C@]23CCC(N(CCN4CC[C@@H](O)C4)C(=O)Nc4cccc(Br)c4)CC2C3)c1` (stereo partly drawn): the affinity corresponds to a Ki of 34 nM. Molecule `N#Cc1cccc([C@]23CCC(N(CCN4CC[C@@H](O)C4)C(=O)Nc4ccc(F)c(F)c4)CC2C3)c1` (stereo partly drawn) gave a Ki of 20 nM. This Ki is about 1.7-fold lower than that of the molecule before. `CN(C)Cc1cccc([C@]23CCC(N(CC4CCN(S(C)(=O)=O)CC4)C(=O)Nc4ccc(F)c(Cl)c4)CC2C3)c1` (stereo partly drawn) showed a Ki of 15 nM.

As to `CC(C)N(CCN(C(=O)Nc1cccc(F)c1)C1CC[C@]2(c3cccc(C#N)c3)CC2C1)C(C)C` (stereo partly drawn), the Ki is 2.1 nM. As for `CC1CC[C@@H](CO)N1CCN(C(=O)Nc1cc(Cl)nc(Cl)c1)C1CC[C@]2(c3cccc(C#N)c3)CC2C1` (stereo partly drawn), the figure is 1.2 nM; as for `CS(=O)(=O)N1CCC(CN(C(=O)Nc2ccc(F)c(C(F)(F)F)c2)C2CC[C@]3(c4cccc(C#N)c4)CC3C2)CC1` (stereo partly drawn), 26 nM. As for `N#Cc1cccc([C@]23CCC(N(CCN4CC[C@@H](O)C4)C(=O)Nc4cc(F)cc(F)c4)CC2C3)c1` (stereo partly drawn), the Ki is 15 nM. As for `N#Cc1cccc([C@]23CCC(N(CCN4CCCCCC4)C(=O)Nc4ccc(F)c(Cl)c4)CC2C3)c1` (stereo partly drawn), the figure is 15 nM; as for `N#Cc1cccc([C@]23CCC(N(CCN4CCOCC4)C(=O)Nc4ccc(F)c(Cl)c4)CC2C3)c1` (stereo partly drawn), 11 nM; as for `COC1CCN(CCN(C(=O)Nc2ccc(F)c(Cl)c2)C2CC[C@]3(c4cccc(C#N)c4)CC3C2)CC1` (stereo partly drawn), 15 nM. With `CS(=O)(=O)N1CCCC(CN(C(=O)Nc2ccc(F)c(Cl)c2)C2CC[C@]3(c4cccc(C#N)c4)CC3C2)C1` (stereo partly drawn), the Ki is 211 nM. As for `CC(C)N(CCF)CCN(C(=O)Nc1ccc(F)c(Cl)c1)C1CC[C@]2(c3cccc(C#N)c3)CC2C1` (stereo partly drawn), the figure is 12 nM. As for `N#Cc1cccc(NC(=O)N(CCN2CC[C@@H](O)C2)C2CC[C@]3(c4cccc(C#N)c4)CC3C2)c1` (stereo partly drawn), the figure is 92 nM; as for `CO/N=C/c1cccc([C@]23CCC(N(CCN(C(C)C)C(C)C)C(=O)Nc4ccc(F)c(Cl)c4)CC2C3)c1` (stereo partly drawn), 4.1 nM.

`CC(C)N(CCN(C(=O)Nc1ccc(F)c(Cl)c1)C1CC[C@]2(c3cccc(CO)c3)CC2C1)C(C)C` (stereo partly drawn) showed an inhibitory constant (Ki) of 48 nM. This Ki lies about 12-fold higher than the previous one. Next, `CS(=O)(=O)N1CCC(CN(C(=O)Nc2cc(Cl)nc(Cl)c2)C2CC[C@]3(c4cccc(CN5CC[C@H](O)C5)c4)CC3C2)CC1` (stereo partly drawn): 8.89 nM; `CC(C)N(CCN(C(=O)Nc1cc(F)cc(F)c1)C1CC[C@]2(c3cccc(C#N)c3)CC2C1)C(C)C` (stereo partly drawn): 4.5 nM; `CS(=O)(=O)N1CCC(CN(C(=O)Nc2ccc(F)c(F)c2)C2CC[C@]3(c4cccc(C#N)c4)CC3C2)CC1` (stereo partly drawn): 5.4 nM. As for `COc1cccc(NC(=O)N(CCN2CC[C@@H](O)C2)C2CC[C@]3(c4cccc(C#N)c4)CC3C2)c1` (stereo partly drawn), the figure is 373 nM. As for `N#Cc1cccc([C@]23CCC(N(CCN4CC[C@@H](O)C4)C(=O)Nc4cccc([N+](=O)[O-])c4)CC2C3)c1` (stereo partly drawn), the figure is 60 nM; as for `CNC(=O)N1CCC(CN(C(=O)Nc2ccc(F)c(C(F)(F)F)c2)C2CC[C@]3(c4cccc(C#N)c4)CC3C2)CC1` (stereo partly drawn), 181 nM; as for `CC(=O)C1CCCN1CCN(C(=O)Nc1ccc(F)c(Cl)c1)C1CC[C@]2(c3cccc(C#N)c3)CC2C1` (stereo partly drawn), 23 nM. On to `CN(C)Cc1cccc([C@]23CCC(N(CC4CCN(S(C)(=O)=O)CC4)C(=O)Nc4cc(Cl)nc(Cl)c4)CC2C3)c1` (stereo partly drawn), for which affinity was put at a Ki of 3.3 nM. As for `CC(C)N(CCN(C(=O)Nc1cccc(C#N)c1)C1CC[C@]2(c3cccc(C#N)c3)CC2C1)C(C)C` (stereo partly drawn), the figure is 7.6 nM; as for `CC(=O)C1CCC(C2=CCC(N(CCN3CCCC3)C(=O)Nc3ccc(F)c(Cl)c3)CC2)S1` (stereo not drawn), 31 nM; as for `N#Cc1cccc([C@]23CCC(N(CCN4CC[C@@H](O)C4)C(=O)Nc4ccccc4)CC2C3)c1` (stereo partly drawn), 132 nM. Next, `C[N+]1(CCN(C(=O)Nc2ccc(F)c(Cl)c2)C2CC[C@]3(c4cccc(C#N)c4)CC3C2)CCCC1` (stereo partly drawn): 16 nM; `N#Cc1cccc([C@]23CCC(N(CCN4CC[C@@H](O)C4)C(=O)Nc4cccc(F)c4)CC2C3)c1` (stereo partly drawn): 20 nM. `CCS(=O)(=O)N1CCC(CN(C(=O)Nc2ccc(F)c(F)c2)C2CC[C@]3(c4cccc(C#N)c4)CC3C2)CC1` (stereo partly drawn) gave an inhibition constant Ki of 21 nM. As for `CC(C)N(CCO)CCN(C(=O)Nc1cc(Cl)nc(Cl)c1)C1CC[C@]2(c3cccc(C#N)c3)CC2C1` (stereo partly drawn), the figure is 1.6 nM; as for `CC(=O)NCc1cccc([C@]23CCC(N(CCN(C(C)C)C(C)C)C(=O)Nc4ccc(F)c(Cl)c4)CC2C3)c1` (stereo partly drawn), 31 nM; as for `C[N+]1(CCN(C(=O)Nc2ccc(F)c(Cl)c2)C2CC[C@]3(c4cccc(C#N)c4)CC3C2)CCCCC1` (stereo partly drawn), 15 nM. Next, `CC1CCC(C2=CCC(N(CCN3CCCC3)C(=O)Nc3ccc(F)c(Cl)c3)CC2)S1` (stereo not drawn): 84.9 nM; `CC(C)N(CCN(C(=O)Nc1ccc(F)c(Cl)c1)C1CC[C@]2(c3cccc(CNS(C)(=O)=O)c3)CC2C1)C(C)C` (stereo partly drawn): 18 nM. Next, `CC(C)N(CCO)CCN(C(=O)Nc1ccc(F)c(Cl)c1)C1CC[C@]2(c3cccc(C#N)c3)CC2C1` (stereo partly drawn): 8.71 nM; `Cc1ccc(NC(=O)N(CCN2CC[C@@H](O)C2)C2CC[C@]3(c4cccc(C#N)c4)CC3C2)cc1F` (stereo partly drawn): 48 nM. On to `CC(C)N(CCN(C(=O)Nc1ccc(F)c(Cl)c1)C1CC[C@]2(c3cccc(CN4CCN(C)CC4)c3)CC2C1)C(C)C` (stereo partly drawn), for which the affinity, expressed as Ki, was 54 nM. Next, `CC1CC[C@@H](CO)N1CCN(C(=O)Nc1ccc(F)c(Cl)c1)C1CC[C@]2(c3cccc(C#N)c3)CC2C1` (stereo partly drawn): 11 nM; `CC(C)NCCN(C(=O)Nc1cc(Cl)nc(Cl)c1)C1CC[C@]2(c3cccc(C#N)c3)CC2C1` (stereo partly drawn): 1.9 nM.

Consider `CC(C)N(CCN(C(=O)Nc1ccc(F)c(Cl)c1)C1CC[C@]2(c3cccc(CN(C)C)c3)CC2C1)C(C)C` (stereo partly drawn), for which the Ki was 13 nM.

Turning to `CC(C)N(CCN(C(=O)Nc1ccc(F)c(F)c1)C1CC[C@]2(c3cccc(Br)c3)CC2C1)C(C)C` (stereo partly drawn), the Ki was 7.76 nM. This Ki is about 1.7-fold lower than that of the molecule before.

Turning to `CC(C)N(CCN(C(=O)Nc1ccc(F)c(Cl)c1)C1CC[C@]2(c3cccc(CN4CC[C@H](O)C4)c3)CC2C1)C(C)C` (stereo partly drawn), the Ki was 21 nM. As to `CS(=O)(=O)N1CCC(CN(C(=O)Nc2cccc(F)c2)C2CC[C@]3(c4cccc(C#N)c4)CC3C2)CC1` (stereo partly drawn), the affinity, expressed as Ki, was 9.71 nM. `N#Cc1cccc([C@]23CCC(N(CCNCCF)C(=O)Nc4cc(Cl)nc(Cl)c4)CC2C3)c1` (stereo partly drawn): the Ki is 4.4 nM. Next, `CS(=O)(=O)N1CCC(CN(C(=O)Nc2ccc(F)c(Cl)c2)C2CC[C@]3(c4cccc(C#N)c4)CC3C2)CC1` (stereo partly drawn): 7.19 nM; `CC(C)N(CCN(C(=O)Nc1cccc(Cl)c1)C1CC[C@]2(c3cccc(C#N)c3)CC2C1)C(C)C` (stereo partly drawn): 6 nM; `CC(=O)N1CCC(CN(C(=O)Nc2ccc(F)c(Cl)c2)C2CC[C@]3(c4cccc(C#N)c4)CC3C2)CC1` (stereo partly drawn): 312 nM. Next, `N#Cc1cccc([C@]23CCC(N(CCN4CCCC(O)C4)C(=O)Nc4ccc(F)c(Cl)c4)CC2C3)c1` (stereo partly drawn): 22 nM; `CCO/N=C/c1cccc([C@]23CCC(N(CCN(C(C)C)C(C)C)C(=O)Nc4ccc(F)c(Cl)c4)CC2C3)c1` (stereo partly drawn): 29 nM; `CC(C)N(CCN(C(=O)Nc1cccc([N+](=O)[O-])c1)C1CC[C@]2(c3cccc(C#N)c3)CC2C1)C(C)C` (stereo partly drawn): 2.7 nM. Next, `CS(=O)(=O)N1CCC(CCN(C(=O)Nc2ccc(F)c(C(F)(F)F)c2)C2CC[C@]3(c4cccc(C#N)c4)CC3C2)CC1` (stereo partly drawn): 80 nM; `CC(C)N(CCN(C(=O)Nc1ccc(F)c(Cl)c1)C1CC[C@]2(c3cccc(C#N)c3)CC2C1)[C@@H](C)CO` (stereo partly drawn): 5.2 nM; `CC(C)N(CCN(C(=O)Nc1cc(Cl)nc(Cl)c1)C1CC[C@]2(c3cccc(C#N)c3)CC2C1)[C@@H](C)CO` (stereo partly drawn): 1.6 nM.

For `N#Cc1cccc([C@]23CCC(N(CCN4CC[C@@H](O)C4)C(=O)Nc4cccc(Cl)c4)CC2C3)c1` (stereo partly drawn), the Ki was 27 nM. As for `CC(C)N(CCN(C(=O)Nc1ccc(F)c(Cl)c1)C1CC[C@]2(c3cccc(C#N)c3)CC2C1)[C@H](C)CO` (stereo partly drawn), the figure is 9.4 nM; as for `CS(=O)(=O)N1CCCCC1CN(C(=O)Nc1ccc(F)c(Cl)c1)C1CC[C@]2(c3cccc(C#N)c3)CC2C1` (stereo partly drawn), 295 nM; as for `N#Cc1cccc([C@]23CCC(N(CCN4CC[C@@H](O)C4)C(=O)Nc4ccc(OCOc5ccccc5)c(OCOc5ccccc5)c4)CC2C3)c1` (stereo partly drawn), 134 nM. Next, `CC(C)N(CCN(C(=O)Nc1cc(Cl)nc(Cl)c1)C1CC[C@]2(c3cccc(C#N)c3)CC2C1)C(C)C` (stereo partly drawn): 2.4 nM; `CCN(CC)Cc1cccc([C@]23CCC(N(CCN(C(C)C)C(C)C)C(=O)Nc4ccc(F)c(Cl)c4)CC2C3)c1` (stereo partly drawn): 46 nM. Next, `CC(C)N(CCN(C(=O)Nc1ccc(F)cc1)C1CC[C@]2(c3cccc(C#N)c3)CC2C1)C(C)C` (stereo partly drawn): 10.4 nM.

Turning to `CC(C)N(CCN(C(=O)Nc1cccc(Br)c1)C1CC[C@]2(c3cccc(C#N)c3)CC2C1)C(C)C` (stereo partly drawn), affinity was put at a Ki of 5.7 nM. Next, `CC(C)N(CCN(C(=O)Nc1ccc(F)c(Cl)c1)C1CC[C@]2(c3cccc(C#N)c3)CC2C1)C(C)C` (stereo partly drawn): 4.98 nM.
